# Experimental data: ChEMBL document CHEMBL2021783, “Inhibition of cholinesterase activity and amyloid aggregation by berberine-phenyl-benzoheterocyclic and tacrine-phenyl-benzoheterocyclic hybrids” (Bioorg Med Chem, 2012)
# Activity calls are given as the source filed them. No cut-off for these calls is given here.
# How the values were obtained:
# [1] = target: Acetylcholinesterase (Electrophorus electricus, UniProt O42275)
# Description: Inhibition of electric eel AChE using acetylcholine as substrate by Ellman's method
# [2] = Inhibition of amyloid beta (1 to 42) self aggregation at 20 uM after 48 hrs by thioflavin T fluorescence assay
# [3] = target: Cholinesterase (Equus caballus, UniProt P81908)
# Sequence of Cholinesterase (P81908 whole entry): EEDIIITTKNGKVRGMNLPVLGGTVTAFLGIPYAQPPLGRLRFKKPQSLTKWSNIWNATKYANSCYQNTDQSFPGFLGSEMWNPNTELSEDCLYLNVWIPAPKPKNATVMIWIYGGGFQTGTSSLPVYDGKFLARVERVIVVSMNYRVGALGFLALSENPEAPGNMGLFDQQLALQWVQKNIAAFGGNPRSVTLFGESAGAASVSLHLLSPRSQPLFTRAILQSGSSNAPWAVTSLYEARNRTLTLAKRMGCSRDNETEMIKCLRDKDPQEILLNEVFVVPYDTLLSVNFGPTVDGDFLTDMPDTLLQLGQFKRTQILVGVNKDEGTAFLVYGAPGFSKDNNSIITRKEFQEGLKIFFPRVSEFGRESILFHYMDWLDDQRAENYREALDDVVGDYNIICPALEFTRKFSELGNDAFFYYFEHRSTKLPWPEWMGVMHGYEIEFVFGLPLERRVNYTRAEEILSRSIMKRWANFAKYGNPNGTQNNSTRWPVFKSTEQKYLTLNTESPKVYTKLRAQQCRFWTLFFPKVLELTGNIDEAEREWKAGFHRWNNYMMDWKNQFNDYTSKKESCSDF
# Description: Inhibition of equine serum BuChE using butyrylcholine as substrate by Ellman's method
# [4] = target: Acetylcholinesterase (Electrophorus electricus) (UniProt O42275); test: Ratio of IC50 for tarcine to compound for electric eel AChE using acetylcholine as substrate by Ellman's method
# Sequence of Acetylcholinesterase (Electrophorus electricus) (O42275 24-633 limits assumed): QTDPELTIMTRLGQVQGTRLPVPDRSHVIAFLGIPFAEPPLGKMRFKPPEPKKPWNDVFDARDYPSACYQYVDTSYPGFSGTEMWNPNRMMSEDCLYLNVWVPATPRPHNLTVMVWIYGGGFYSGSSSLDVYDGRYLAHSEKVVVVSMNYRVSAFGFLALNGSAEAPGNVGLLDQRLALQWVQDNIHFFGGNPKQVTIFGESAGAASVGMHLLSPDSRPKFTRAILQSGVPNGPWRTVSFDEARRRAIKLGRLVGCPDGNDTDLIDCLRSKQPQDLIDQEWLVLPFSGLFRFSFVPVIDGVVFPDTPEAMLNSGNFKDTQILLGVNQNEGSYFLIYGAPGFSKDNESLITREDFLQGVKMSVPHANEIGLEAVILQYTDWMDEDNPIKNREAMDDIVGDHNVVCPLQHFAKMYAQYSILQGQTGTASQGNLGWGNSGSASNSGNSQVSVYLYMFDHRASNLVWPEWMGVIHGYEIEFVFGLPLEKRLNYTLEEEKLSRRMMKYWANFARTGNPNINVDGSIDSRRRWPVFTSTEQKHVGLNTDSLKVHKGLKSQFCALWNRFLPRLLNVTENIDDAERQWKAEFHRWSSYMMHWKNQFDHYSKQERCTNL
# [5] = target: Acetylcholinesterase (Electrophorus electricus) (UniProt O42275); test: Mixed-type inhibition of electric eel AChE using acetylcholine as substrate after 15 mins by Lineweaver-Burk plot analysis
# Sequence of Acetylcholinesterase (O42275 whole entry): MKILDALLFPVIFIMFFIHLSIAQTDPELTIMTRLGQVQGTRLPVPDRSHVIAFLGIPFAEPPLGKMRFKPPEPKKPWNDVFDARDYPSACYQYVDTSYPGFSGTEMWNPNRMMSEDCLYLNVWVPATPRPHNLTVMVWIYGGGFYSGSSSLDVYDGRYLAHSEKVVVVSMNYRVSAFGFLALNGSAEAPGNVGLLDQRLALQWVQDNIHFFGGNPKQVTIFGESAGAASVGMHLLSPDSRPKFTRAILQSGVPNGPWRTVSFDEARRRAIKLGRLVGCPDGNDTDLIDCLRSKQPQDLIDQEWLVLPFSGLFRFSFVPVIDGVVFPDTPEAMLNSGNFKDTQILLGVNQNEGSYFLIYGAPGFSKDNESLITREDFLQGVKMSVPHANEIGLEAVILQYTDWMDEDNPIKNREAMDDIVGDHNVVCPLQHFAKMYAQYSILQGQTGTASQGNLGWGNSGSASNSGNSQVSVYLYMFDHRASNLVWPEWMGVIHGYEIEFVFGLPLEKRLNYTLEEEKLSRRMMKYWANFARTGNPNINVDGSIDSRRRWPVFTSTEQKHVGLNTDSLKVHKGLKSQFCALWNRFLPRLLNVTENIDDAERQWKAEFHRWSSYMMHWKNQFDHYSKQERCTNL
SMILES,IC50 [1],inhibition [2],IC50 [3],Ratio IC50 [4],inhibition [5]
c1ccc2sc(-c3ccc(OCCCCCNc4c5c(nc6ccccc46)CCCC5)cc3)nc2c1,40 nM,40.7%,171 nM,–,–
c1ccc2oc(-c3ccc(OCCCNc4c5c(nc6ccccc46)CCCC5)cc3)cc2c1,58 nM,62.8%,156 nM,–,–
c1ccc2oc(-c3ccc(OCCCCNc4c5c(nc6ccccc46)CCCC5)cc3)nc2c1,947 nM,33.2%,207 nM,–,–
c1ccc2sc(-c3ccc(OCCCCCCNc4c5c(nc6ccccc46)CCCC5)cc3)nc2c1,93 nM,41.9%,82 nM,–,–
COc1ccc2cc3[n+](cc2c1OCCOc1ccc(-c2nc4ccccc4s2)cc1)CCc1cc2c(cc1-3)OCO2,1640 nM,–,175 nM,–,–
COc1ccc2cc3[n+](cc2c1OCCOc1ccc(-c2cc4ccccc4o2)cc1)CCc1cc2c(cc1-3)OCO2,3590 nM,–,–,–,–
COc1ccc2cc3[n+](cc2c1OC)CCc1cc2c(cc1-3)OCO2,–,36.3%,–,–,–
c1ccc2sc(-c3ccc(OCCCCNc4c5c(nc6ccccc46)CCCC5)cc3)nc2c1,105 nM,37.8%,186 nM,–,–
COc1ccc2cc3[n+](cc2c1OCCCNC(=O)c1cc2ccccc2[nH]1)CCc1cc2c(cc1-3)OCO2,976 nM,73.5%,2190 nM,–,–
COc1ccc2cc3[n+](cc2c1OCCOc1ccc(-c2nc4ccccc4o2)cc1)CCc1cc2c(cc1-3)OCO2,3300 nM,–,–,–,–
COc1ccc2cc3[n+](cc2c1OCCCOc1ccc(-c2nc4ccccc4s2)cc1)CCc1cc2c(cc1-3)OCO2,1480 nM,79.2%,587 nM,–,–
COc1ccc2cc3[n+](cc2c1OCCOc1ccc(-c2cc4ccccc4[nH]2)cc1)CCc1cc2c(cc1-3)OCO2,1070 nM,–,–,–,–
COc1ccc2cc3[n+](cc2c1OCCCOc1ccc(-c2nc4ccccc4o2)cc1)CCc1cc2c(cc1-3)OCO2,2120 nM,–,639 nM,–,–
c1ccc2sc(-c3ccc(OCCCNc4c5c(nc6ccccc46)CCCC5)cc3)nc2c1,17 nM,51.8%,122 nM,18,Active
c1ccc2oc(-c3ccc(OCCCCNc4c5c(nc6ccccc46)CCCC5)cc3)cc2c1,201 nM,46.3%,238 nM,–,–
COc1ccc2cc3[n+](cc2c1OCCCOc1ccc(-c2cc4ccccc4o2)cc1)CCc1cc2c(cc1-3)OCO2,1920 nM,84.6%,990 nM,–,–
COc1ccc2cc3[n+](cc2c1OCCCNC(=O)c1cc2ccccc2o1)CCc1cc2c(cc1-3)OCO2,1940 nM,69.1%,1540 nM,–,–
c1ccc2oc(-c3ccc(OCCCNc4c5c(nc6ccccc46)CCCC5)cc3)nc2c1,475 nM,57.6%,352 nM,–,–
COc1ccc2cc3[n+](cc2c1OCCCOc1ccc(-c2cc4ccccc4[nH]2)cc1)CCc1cc2c(cc1-3)OCO2,774 nM,–,711 nM,–,–
